Results published in patent publication US20260365696A1, “INHIBITORS OF PTP1B / NCK1 INTERACTION AND METHODS OF MAKING AND USING SAME” (Radella Pharmaceuticals LLC, priority 2023, published 2026).

How the values were obtained:
[1] = molecular target: T1, interaction between PTP1B and the SH3-2 domain of NCK1 (Homo sapiens, UniProt P16333); assay: GST pull-down / co-immunoprecipitation screen for disruption of the PTP1B / NCK1 SH3-2 interaction; format: binding; details: peptide 1 mM; for disruption of the interaction between PTP1B and the SH3-2 domain of NCK1: GST-SH3-2 and FLAG-PTP1B
T1 construct: FLAG-PTP1B from HEK293 lysate
Protocol: FIG. 4A depicts an immunoblot showing that certain peptides prevent co-immunoprecipitation of FLAG-PTP1B and GST-tagged SH3-2 domain of NCK1 (“SH3”). GST was fused to full-length NCK1 (“Nck1”), all SH3 domains of NCK1 (“SH3”), the NCK1 SH2 domain (“SH2”), the NCK1 SH3-1 domain (“SH3 1”), the NCK1 SH3-2 domain (“SH3 2”), and the NCK1 SH3-3 domain (“SH3 3”). GST alone was used as a negative control (“GST”). FLAG-PTP1B was incubated with the indicated bead-bound GST-fusion protein, and FLAG-PTP1B was detected in the IP eluate by western blotting. The outlined region in column “SH3-2” identifies the PTP1B band. For GST-SH3-2 and FLAG-PTP1B, the mixture was further incubated with one of peptides A through K, (1 mM). FIG. 4B depicts an input control for the immunoblot. FIG. 4C depicts a Ponceau stain for the immunoblot, which was used to measure total protein.
Construction and Purification of GST constructs: Human NCK1 (NM_006153) human cDNA was obtained (Origene, MD, USA). GST fusion constructs (GST-only control, GST full length NCK1, GST all SH3 domains of NCK1, GST SH2 domain of NCK1, GST SH3-1, GST SH3-2 and GST SH3-3) were amplified, double digested (EcoRI and XhoI, New England Biolabs), ligated in to pGEX-6P-2 vector (#M2200S, New England Biolabs; #GE28-9546-50, Merck), transformed in to DH5α E. coli cells (#C2987H, NEB) and purified using a plasmid preparation kit according to manufacturer's instructions (#T1010, New England Biolabs). GST-constructs were transformed in to BL21-Gold E. coli cells (#230134, Agilent), and GST-fusion proteins were produced, extracted, and bound to GST beads as described in Example 1. Beads were washed three times with STE buffer and stored at 4 °C.
GST pull-down experiments for compounds screening against FLAG PTP1B interaction with SH3-2 domain of NCK1. GST-bound agarose beads of SH3-2 domain were incubated overnight at 4 °C with lysates from HEK293 cells overexpressing FLAG PTP1B protein, to gether with various peptide compounds (1 mM) to screen for inhibition of PTP1B-NCK1 binding. Following overnight incubation, agarose beads were three times washed in STE buffer, and proteins were eluted in SDS-Laemmli buffer by heating at 95 °C for 10 min. Samples were spun at 12,000 rpm for 2 min, and the liquid fraction was transferred in to 1 mL Eppendorf tubes. Proteins were separated and detected by chemiluminescent Western Blotting (PEQLAB, Germany) using anti-FLAG HRP antibody (#A8592, Sigma).

[2] = 28-day pharmacodynamic and liver toxicity study in C57BL/6 mice; format: in vivo, mouse; details: 28 days; for body weight: 15 or 30 mg/kg IP daily; for signs of physiological or hepatic toxicity: 15 or 30 mg/kg daily IP
Excerpt: Animals: C57BL/6 male mice (−3 months) were purchased from Charles River, UK. All animals were housed and tested following European (Directive on the Protection of Animals used for Scientific Purposes, 2010/63/EU) and UK Home Office regulations. Experiments were approved by the University Ethics Board and carried out in accordance with the Animal (Scientific Procedures) Act 1986 and following ARRIVE guidelines.
Treatments: Mice were randomized in to the five experimental groups: Control (n=9); MD17, 15 mg/kg (n=6); MD17, 30 mg/kg (n=6); MD20, 15 mg/kg (n=6); and MD20, 30 mg/kg (n=6). MD17 and MD20 compounds were administered to mice once daily via intraperitoneal (IP) injection for a period of 28 consecutive days at a dose of either 15 or 30 mg/kg. Peptides were kept in −20 °C and dissolved in sterile phosphate buffered saline (PBS) freshly every day before the injection. Control mice received a daily PBS injection. Three mice died during the study, and the final number of animals in each group was: Control (n=9); MD17, 15 mg/kg (n=5); MD17, 30 mg/kg, (n=6); MD20, 15 mg/kg (n=5); and MD20, 30 mg/kg (n=5). All mice had ad libitum access to food and water and were kept in a 12 h light/dark cycle.
Bodyweights and body mass composition: body weights were recorded during the study and fat and lean mass composition was analysed using an EchoMRI scanner (EchoMedical Systems, Houston, TX, U.S.A.).
Fasted glucose: All animals were 5 h-fasted and tail glucose measured using an AlphaTRAK 2 glucose strips and glucometer (Abbot, UK).
Serum assays: Trunk-derived blood was collected from 5 h-fasted mice in to serum separator microtubes and kept at −80 °C. Serum was used for insulin (#EZRMI-13K, Merck), leptin (#90030, Crystal Chem), free fatty acids (FFA; #mak044, Sigma-Aldrich), alanine and aspartate aminotransferases (ALT and AST; #ab105134 and #ab105135, Abcam) analyses.
Statistical analyses: Data were expressed as means±SEM and were analysed using one- or two-way ANOVA with Bonferroni post hoc tests, as appropriate. GraphPad Prism (V8, GraphPad Software, Inc., San Diego, California, USA) was used for analyses. P-values <0.05 were considered significant.

Row | Substance | binding to full-length NCK1 (concluded from pull-down) [1] | disruption of the interaction between PTP1B and the SH3-2 domain of NCK1 [1] | body weight [2] | signs of physiological or hepatic toxicity [2] | % change in fat mass ([2]; 30 mg/kg IP daily, vs control) | percentage change in body weight pre- versus post-treatment ([2]; 30 mg/kg IP daily, vs control)
1 | Ac-PPPEHIPPPPRPPKR-NH2 [MD17] | bind to full-length NCK1, specifically, at SH3-2 domain | disrupt the interaction between PTP1B and the SH3-2 domain of NCK1 | No statistically significant differences | did not induce any obvious signs of physiological or hepatic toxicity | – | –
2 | Ac-PRPPKR-NH2 [MD20, Ac-PRPPKR-NH2] | bind to full-length NCK1, specifically, at SH3-2 domain | disrupt the interaction between PTP1B and the SH3-2 domain of NCK1 | No statistically significant differences | did not induce any obvious signs of physiological or hepatic toxicity | decreased | significant decrease in % change
